SMILES strings stand for the structures. “Also recorded” adds a separate entry of the source.

The text below walks through data of US6531462B2, “Medicament for treating obesity and improving lipid metabolism” (priority 1997, dated 2003).

A short description of series [1]: Example 1: body weight, body fat and feed intake of mice fed feed supplemented with 0.5% test compound. In kind it is in vivo, CDF1 male mice. The note with it: ratio relative to the non-treated control group, CDF1 mice. As for the experimental part: (§1) 5-Sitosten-3-one was prepared according to the method of Parish (Parish, E. J., et al., Synthetic Communication, 22, pp.2839-2847, 1992) by using β-sitosterol (Tokyo Chemical Industry Co., Ltd.) as a starting material and used in the experiments. The content ratio of 24-ethyl and 24-methyl compounds in the synthesized product was 6.5:3.5. As experimental animals, six CDF1 male mice (5-week old, Charles River Japan Inc.) were used in each experimental group. The animals were fed in aluminum cages for mice, and allowed to feed and water ad libitum. The animals were fed for 2 weeks under feeding conditions at a temperature of 24±1° C. and a relative humidity of 55±5%, where light and darkness were controlled to change every 12 hours, and each cage and floor mat (white flakes) were exchanged twice a week.
(§2) Modified AIN (Oriental Yeast Co.) was used as basic feed and mixed with 0.5% 5-sitosten-3-one to prepare test feeds. A feed used as a positive control was prepared by adding 0.5% of 4-cholesten-3-one (Japanese Patent Unexamined Publication No. Hei 5-170651/1993) to the basic feed. Non-treated mice as a control were fed solely with the basic feed. The basic feed was composed of 22.8% crude protein, 54.1% carbohydrates, 6.0% lipids, 4.9% fibers, 2.9% ash, and 8.7% water, and its calorie was 1,523 kJ. The feed was stored at 4° C. after preparation, and a fresh feed was supplied every day.
(§3) The animals were weighed at given intervals of time, and the average values and standard errors of the experimental groups were determined. In addition, feed consumptions were measured at given intervals of time and daily averages per mouse were determined. The animals were observed every day. After the end of the feeding, the animals were anesthetized to death with carbon dioxide gas, and bloods were collected from the vena cava to obtain serums. The animals were autopsied, and the brains, lungs, hearts, livers, spleens, kidneys, testis, adrenals and intraperitoneal fat were examined by the naked eye and weighed. As to serum lipid, neutral fats were measured by using a clinical test kit based on the enzyme method (Triglyceride-E Test, Wako Pure Chemicals Industries Co., Ltd.), and total cholesterol and cholestanol were measured by the method of Kasama (T. Kasama, et al., J. Chromatogr., 400, 241, 1987) with modifications, where the amount of benzoyl chloride was increased by 10 times, the reaction time was doubled, and the measurement was performed by using a high performance liquid chromatography system. Significant differences were determined by t-test for body weights and serum lipids on the basis of the non-treated control mice.

Series [2] is described as follows: Example 1: serum lipids and serum metabolites of mice fed feed supplemented with 0.5% test compound. The following applies: for Serum cholesterol / Serum neutral fats: ratio relative to the non-treated control group. In kind it is in vivo. As for the experimental part: as §1, §2, §3
A short description of series [3]: Example 2: body weight, feed intake, feed efficiency and intraperitoneal fat of mice fed 0.5% test compound. In kind it is in vivo, CDF1 male mice. The following applies: 0.5% in feed; for Feed efficiency (body weight gain/feed intake): 14 days; for Intraperitoneal fat: mean (n=6) ± standard error; for Body weight gain: total for 14 days; for Decrease of intraperitoneal fat: versus control. From the text:
(§4) As 24-alkylcholesten-3-ones, (1) 4-sitosten-3-one, (2) 6α-hydroxy-4-sitosten-3-one, and (3) 6-hydroxy-4-sitosten-3-one (α:β=2.6:1) were synthesized by using β-sitosterol (Tokyo Chemical Industries Co., Ltd.). The content ratio of 24-ethyl and 24-methyl compounds in the synthesized product was 6.5:3.5. As experimental animals, six CDF1 male mice (5-week old, Charles River Japan Inc.) were used in each experimental group. A purified feed (Modified AIN, Oriental Yeast Co.) was used as a basic feed and mixed with 0.5% test compounds to prepare test feeds. The animals were allowed to feed and water ad libitum. The animals were weighed and observed to examine general conditions twice a week. The animals were subjected to autopsy after the end of the feeding, and their bloods were collected. Lipid concentrations in the separated serums were measured by using a clinical test kit based on the enzyme method (Wako Pure Chemicals Industries Co., Ltd.). Significances of the resulting experimental values were examined by the variance analysis. The other experimental conditions were the same as in Example 1.

A short description of series [4]: Example 2: serum (plasma) lipid concentrations of mice fed 0.5% test compound. In kind it is in vivo, CDF1 male mice. The following applies: 0.5% in feed; for Free fatty acid / HDL-cholesterol / Phospholipid / Total cholesterol / Triglyceride: mean (n=6) ± standard error.
Text: as §4

A short description of series [5]: Example 4: body weight and body fat of mice fed 0.5% test compound for 14 days. It counts as in vivo, CDF1 male mice. The note with it: 0.5% in feed; for Intraperitoneal fat: mean (n=6) ± standard error. As for the experimental part:
(§5) 5-Campesten-3-one was prepared from campesterol (>97%, Tama Biochemical Industry, Ltd.). 4-Sitosten-3,6-dione was prepared from β-sitosterol (>65%, Tokyo Chemical Industry Co., Ltd.) and obtained as a mixture of 24-ethyl compound and 24-methyl compound (2:1). 5-Stigmasten-3-one was prepared from stigmasterol (>94%, Tokyo Chemical Industry, Co., Ltd.). As experimental animals, six CDF1 male mice (5-week old, Charles River Japan Inc.) were used in each experimental group. Modified AIN (Oriental Yeast Co.) was used as basic feed and mixed with 0.5% of each test compound to prepare test feeds. The animals were allowed to feed with the test food ad libitum for 14 days. Measurements of body weights and observations of general conditions of the animals were carried out twice a week, and the animals were subjected to autopsy and their bloods were collected. Serum lipid analysis was conducted by using a clinical test kit based on the enzymatic method (Wako Pure Chemicals Industries Co., Ltd.). Significances of the resulting values were examined by the one-way analysis of variance with pairwise comparison (ANOVA) according to the Bonferroni method. Other conditions were the same as those described in Example 1.

Series [6] in a line: Example 4: serum lipid concentration of mice fed 0.5% test compound for 14 days. In kind it is in vivo, CDF1 male mice. The following applies: 0.5% in feed; for Total cholesterol / Triglyceride: mean (n=6) ± standard error. On the procedure: as §5
Where [7] appears, read: male, CDF1, mouse, in vivo, 2 weeks.

Take `CC(C)CCC[C@@H](C)[C@H]1CC[C@H]2[C@@H]3C=CC4=CC(=O)CC[C@]4(C)[C@H]3CC[C@]12C` [Colesta-4,6-dien-3-one]: in series [1], the Body weight gain worked out at 59% and the Intraperitoneal fat is listed as 69%. Also, in series [2] (CDF1 mice), the Serum cholesterol was determined as 63% and the Serum neutral fats was 60%.

As to `CC[C@H](CC[C@@H](C)[C@H]1CC[C@H]2[C@@H]3C[C@H](O)C4=CC(=O)CC[C@]4(C)[C@H]3CC[C@]12C)C(C)C` [6α-Hydroxy-4-sitosten-3-one, 6α-hydroxy-4-sitosten-3-one], in series [3], the “Feed efficiency (change)” value is “remarkable decrease”, the “Suppression of body weight (FIG. 3)” value is “potent suppressing effects”, the “Feed efficiency (body weight gain/feed intake)” value amounted to 0.022 and the Intraperitoneal fat was determined as 369.8 ± 22.5 mg. In series [3], the Body weight gain is given as 0.86 g/mouse and the “Decrease of intraperitoneal fat” value stood at 60%. Moreover, in series [4], the “Total cholesterol and phospholipid concentrations in plasma” value is “significantly decreased”; the Free fatty acid stood at 0.69 ± 0.04 mEq/dl; the HDL-cholesterol was 36.7 ± 4.7 mg/dL; the Phospholipid was 209.6 ± 7.8 mg/dL. Also, in series [4], the Total cholesterol is 142.5 ± 5.1 mg/dL and the Triglyceride stood at 66.8 ± 3.5 mg/dL.

On to `CC[C@H](CC[C@@H](C)[C@H]1CC[C@H]2[C@@H]3CC(O)C4=CC(=O)CC[C@]4(C)[C@H]3CC[C@]12C)C(C)C` (stereo partly drawn) [6-Hydroxy-4-sitosten-3-one (α:β = 2.6:1), 6-hydroxy-4-sitosten-3-one (α:β=2.6:1)], for which, in series [3], the “Feed efficiency (change)” value is reported as “remarkable decrease”, the “Suppression of body weight (FIG. 3)” value is given as “potent suppressing effects”, the “Feed efficiency (body weight gain/feed intake)” value stood at 0.044 and the Intraperitoneal fat is reported as 481.8 ± 51.9 mg. Besides, in series [3], the Body weight gain is 1.82 g/mouse and the “Decrease of intraperitoneal fat” value turned out to be 50%. Moreover, in series [4], the “Total cholesterol and phospholipid concentrations in plasma” value is listed as “significantly decreased”; the Free fatty acid was 0.77 ± 0.03 mEq/dl; the HDL-cholesterol was found to be 45.0 ± 5.8 mg/dL; the Phospholipid was found to be 211.9 ± 5.1 mg/dL. In series [4], this molecule displayed a Total cholesterol of 133.3 ± 5.7 mg/dL and a Triglyceride of 76.5 ± 5.2 mg/dL.

Regarding `CC(C)CCC[C@@H](C)[C@H]1CC[C@H]2[C@@H]3CC(O)C4=CC(=O)CC[C@]4(C)[C@H]3CC[C@]12C` (stereo partly shown) [6-Hydroxy-4-cholesten-3-one], in series [1], the Body weight gain was determined as 50% and the Intraperitoneal fat is listed as 63%. Also, the Serum metabolite in series [2] (setting [7]) is 0. Also, in series [2] (CDF1 mice), the Serum cholesterol stood at 80% and the Serum neutral fats is given as 47%.

With `CC(C)CCC[C@@H](C)[C@H]1CC[C@H]2[C@@H]3CC[C@@H]4CC(=O)CC[C@]4(C)[C@H]3CC[C@]12C` [5 β-Cholestan-3-one, 5β-cholestan-3-one], in series [1], the Body weight gain is on record as 51% and the Intraperitoneal fat was determined as 71%. Besides, in series [2] (metabolite of the test compound detected in serum, CDF1 mice), the Serum metabolite result is reported as “Cholestanol”. For the same molecule, the Serum metabolite entry in series [2] (metabolite of the test compound detected in serum, CDF1 mice, listed as 5β-cholestan-3-one) is “cholestanol or coprostanol”. Besides, in series [2] (CDF1 mice), the Serum cholesterol turned out to be 75% and the Serum neutral fats was 70%.

With `CC[C@H](CC[C@@H](C)[C@H]1CC[C@H]2[C@@H]3CCC4=CC(=O)CC[C@]4(C)[C@H]3CC[C@]12C)C(C)C` [4-Sitosten-3-one, 4-sitosten-3-one], in series [3], the “Feed efficiency (change)” value is on record as “only slight changes”, the “Suppression of body weight (FIG. 3)” value was “no significant suppression”, the “Feed efficiency (body weight gain/feed intake)” value came out at 0.087 and the Intraperitoneal fat is 841.5 ± 69.0 mg. Moreover, in series [3], the Body weight gain is 3.71 g/mouse and the “Decrease of intraperitoneal fat” value is given as “not signilficant”. Moreover, in series [4], the Free fatty acid is 0.92 ± 0.03 mEq/dl, the HDL-cholesterol came out at 42.4 ± 6.36 mg/dL, the Phospholipid worked out at 271.0 ± 9.5 mg/dL and the Total cholesterol was 151.4 ± 5.7 mg/dL. The molecule further yielded a Triglyceride in series [4] of 130.9 ± 4.9 mg/dL.

On to `CC(C)CCC[C@@H](C)[C@H]1CC[C@H]2[C@@H]3CC=C4CC(=O)CC[C@]4(C)[C@H]3CC[C@]12C` [5-Cholesten-3-one], for which, in series [1], the Body weight gain is reported as −16% and the Intraperitoneal fat is recorded as 37%. For the same molecule, the Serum metabolite in series [2] (setting [7]) was 0. In addition, in series [2] (CDF1 mice), the Serum cholesterol came to 68% and the Serum neutral fats was found to be 30%.

`CC(C)CCC[C@@H](C)[C@H]1CC[C@H]2[C@@H]3CC(=O)C4=CC(=O)CC[C@]4(C)[C@H]3CC[C@]12C` [4-Cholestene-3,6-dione]: in series [1], the Body weight gain is given as −62% and the Intraperitoneal fat was determined as 23%. The Serum metabolite in series [2] (setting [7]) was 0. Moreover, in series [2] (CDF1 mice), the Serum cholesterol amounted to 60% and the Serum neutral fats stood at 36%.

In turn, `CC[C@H](CC[C@@H](C)[C@H]1CC[C@H]2[C@@H]3CC=C4CC(=O)CC[C@]4(C)[C@H]3CC[C@]12C)C(C)C` [5-Stigmasten-3-one] had an Intraperitoneal fat in series [5] of 745.7 ± 46.7 mg. Besides, in series [6], the “Decrease of serum total cholesterol concentration” value is on record as roughly 49%, the “Decrease of serum triglyceride concentration” value is roughly 68%, the Total cholesterol is 97.9 ± 3.4 mg/dL and the Triglyceride was 82.0 ± 6.7 mg/dL.

As for `CC(C)CCC[C@@H](C)[C@H]1CC[C@H]2[C@@H]3C[C@@H](Br)C4=CC(=O)CC[C@]4(C)[C@H]3CC[C@]12C` [6 β-Bromo-4-cholesten-3-one, 6β-bromo-4-cholesten-3-one], in series [1], the Body weight gain turned out to be 48% and the Intraperitoneal fat turned out to be 62%. Further, in series [2] (CDF1 mice), the Serum cholesterol amounted to 98% and the Serum neutral fats is 89%.

Turning to `CC(C)[C@H](C)CC[C@@H](C)[C@H]1CC[C@H]2[C@@H]3CC=C4CC(=O)CC[C@]4(C)[C@H]3CC[C@]12C` [5-Campesten-3-one, 5-campesten-3-one (24-methylcholest-5-en-3-one)], in series [5], the “Effect on the increase of body weight (FIG. 6)” value was “Significant inhibitory effects; also recorded: remarkably suppressed” and the Intraperitoneal fat was 86.4 ± 19.9 mg. Besides, the “Decrease of body fat” value in series [5] (versus non-treated mice) is reported as “about 90%”. Also, in series [6], the “Decrease of serum total cholesterol concentration” value is “about 34%”, the “Decrease of serum triglyceride concentration” value was “about 45%”, the Total cholesterol was 125.8 ± 4.0 mg/dL and the Triglyceride was 138.9 ± 18.7 mg/dL.
